Tests used:
hERG channel = molecular target: T1, hERG channel (Homo sapiens, UniProt Q12809); assay: hERG fluorescence polarization assay (potential of inducing QT interval prolongation); format: binding
T1 construct: purchased Invitrogen
Description: The potential of the compound disclosed herein inducing QT interval prolongation was evaluated by detecting if the compound would block the hERG channel. The specific test method is as follows:
Precisely weighed compound disclosed herein was dissolved in DMSO to formulate a solution at the highest concentration of 10.0 mM, and then the solution was diluted to a initial concentration of 120.0 μM with hERG FP Assay Buffer (Invitrogen); the hERG Tracer Red stock solution (Invitrogen) and the positive control E-4031 stock solution (Invitrogen) were respectively diluted to initial concentrations of 4.0 nM and 120.0 μM with hERG FP Assay Buffer (Invitrogen). […]
The above-mentioned solution of the compound disclosed herein and E-4031 at the initial concentration of 120 μM were respectively diluted with hERG FP Assay Buffer 5-fold in series to provide 8 concentration of 120.0 μM, 24.0 μM, 4.8 μM, 960.0 nM, 192.0 nM, 38.4 nM, 7.7 nM and 1.5 nM. […] After that, the 384-well plate was put into an oscillator (PHMP-4, Grant-sio), in 25° C., 250 rpm, to incubate for 4 hours, and the fluorescence polarization values were measured by multi-function microplate reader (PHERAStarFS, BMG LABTECH) and corrected with the minimum and maximum fluorescence polarization values of E-4031, and the IC50 of the compound disclosed herein was calculated by GraphPad software. […]

humanized OX2 receptor = molecular target: T2, humanized OX2 receptor (Homo sapiens, UniProt O43614); assay: Antagonistic effect on humanized OX2 receptor, calcium flux by fluorescence detection in HEK-293 cells; format: cell-based; conditions: HEK-293 cells, calcium flux induced by 10 nM orexin B; read-out: OX2 IC50
T2 construct: expressed in transfected cells; host or cells: HEK-293 cells
T2 sequence (O43614 1-444): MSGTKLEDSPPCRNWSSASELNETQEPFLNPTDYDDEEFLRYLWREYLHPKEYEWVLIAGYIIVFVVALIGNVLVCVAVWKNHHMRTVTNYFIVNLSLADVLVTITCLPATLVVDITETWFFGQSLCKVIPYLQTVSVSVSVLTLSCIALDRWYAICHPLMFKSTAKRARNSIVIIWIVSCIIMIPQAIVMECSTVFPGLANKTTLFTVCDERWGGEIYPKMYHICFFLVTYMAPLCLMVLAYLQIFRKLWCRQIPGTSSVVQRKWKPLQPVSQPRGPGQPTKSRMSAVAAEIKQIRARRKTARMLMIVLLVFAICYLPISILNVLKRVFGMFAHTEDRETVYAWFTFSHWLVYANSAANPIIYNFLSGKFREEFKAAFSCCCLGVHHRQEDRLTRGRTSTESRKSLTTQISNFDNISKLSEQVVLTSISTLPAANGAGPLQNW
Description: The capability of the compounds provided herein to antagonize humanized OX2 receptors expressed in HEK-293 cells was evaluated by the influence of the compounds disclosed herein on calcium flux in cells induced by agonist detected by a method of fluorescence detection. The cells were suspended in DMEM culture medium (invitrogen), and then added to a microplate with an average density of 3×10^4 cells/well. The Hank's balanced salt solution (pH 7.4) containing fluorescent probes (Fluo4 NW, Invitrogen), probenecid (invitrogen), 20 mM […] (invitrogen) was added to the above microplate, and then incubated together with the cells at 37° C. for 60 min, further incubated at 22° C. for 15 min. The microplate was placed in a microplate reader (CellLux, PerkinElmer), and to which was added the test compound or reference antagonist or Hank's balanced salt solution, 5 min later, 10 nM of orexin B or Hank's balanced salt solution (as a blank contrast) was added. […] The experimental results were expressed as an inhibition percentage relative to a control group (the group with 10 nM of orexin B).
The standard reference antagonist is JNJ10397049, and IC50 values were calculated by the dose-effect curve obtained from a series of concentrations of the experimental test.

[1] = Pharmacokinetic evaluation after intravenous or gavage administration to dogs; format: in vivo, Beagle dogs; conditions: beagle, dog, in vivo
Description: The compounds disclosed herein were administered in form of a saline solution containing 5% DMSO, 5% Kolliphor HS 15, 2% (2% HCl) and 88% Saline, or a solution containing 10% DMSO, 10% Kolliphor HS 15 and 80% physiological saline to the subject animals. For intravenous administration, the animals were administered with a dose of 1 mg/kg or 2 mg/kg, and vein blood samples (0.3 mL) were collected at the time points of 0.083, 0.25, 0.5, 1.0, 2.0, 4.0, 6.0, 8.0 and 24 h after drug administration; plasma samples were collected by centrifugation of the vein blood samples at 3000 rpm or 4000 rpm for 10 minutes, and stored at −20° C. or −70° C. For gavage administration, the animals were administered with a dose of 2.5 mg/kg or 5 mg/kg, and vein blood samples (0.3 mL) were collected at the time points of 0.25, 0.5, 1.0, 2.0, 4.0, 6.0, 8.0 and 24 h after drug administration; plasma samples were collected by centrifugation at 3000 rpm or 4000 rpm for 10 minutes, and stored at −20° C. or −70° C. The positive control is suvorexant.
The above plasma samples were analyzed by the LC-MS/MS system.

T1 sequence (Q12809 whole entry): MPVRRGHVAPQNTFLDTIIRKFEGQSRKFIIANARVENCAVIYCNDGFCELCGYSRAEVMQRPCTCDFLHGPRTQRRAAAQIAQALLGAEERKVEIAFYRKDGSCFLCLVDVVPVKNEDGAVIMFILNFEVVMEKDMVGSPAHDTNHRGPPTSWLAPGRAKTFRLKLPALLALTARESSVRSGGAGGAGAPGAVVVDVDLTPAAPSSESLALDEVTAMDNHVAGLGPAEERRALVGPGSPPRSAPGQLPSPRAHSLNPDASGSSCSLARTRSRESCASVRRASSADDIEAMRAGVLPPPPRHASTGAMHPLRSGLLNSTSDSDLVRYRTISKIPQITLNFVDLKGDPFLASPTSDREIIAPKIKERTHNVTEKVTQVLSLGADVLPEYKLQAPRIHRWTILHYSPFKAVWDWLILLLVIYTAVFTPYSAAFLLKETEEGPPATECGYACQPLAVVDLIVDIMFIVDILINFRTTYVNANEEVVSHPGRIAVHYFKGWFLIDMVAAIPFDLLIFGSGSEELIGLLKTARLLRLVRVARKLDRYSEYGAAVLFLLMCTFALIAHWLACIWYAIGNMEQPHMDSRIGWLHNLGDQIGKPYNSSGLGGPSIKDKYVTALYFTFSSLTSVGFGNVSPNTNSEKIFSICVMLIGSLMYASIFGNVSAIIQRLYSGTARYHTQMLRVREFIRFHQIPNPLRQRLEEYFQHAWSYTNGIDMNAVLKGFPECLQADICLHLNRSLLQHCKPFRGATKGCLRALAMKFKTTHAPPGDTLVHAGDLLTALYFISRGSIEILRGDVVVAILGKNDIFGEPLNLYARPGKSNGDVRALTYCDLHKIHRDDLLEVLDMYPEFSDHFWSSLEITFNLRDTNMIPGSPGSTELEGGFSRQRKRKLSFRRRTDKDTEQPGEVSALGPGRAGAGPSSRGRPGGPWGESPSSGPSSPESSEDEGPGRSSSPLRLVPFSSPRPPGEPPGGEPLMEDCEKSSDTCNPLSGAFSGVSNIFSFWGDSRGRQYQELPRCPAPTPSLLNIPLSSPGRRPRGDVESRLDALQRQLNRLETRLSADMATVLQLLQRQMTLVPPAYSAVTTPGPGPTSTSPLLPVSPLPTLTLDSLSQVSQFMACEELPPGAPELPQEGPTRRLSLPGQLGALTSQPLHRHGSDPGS

Cc1ccc(-n2nccn2)c(C(=O)N2CC3CN(c4nc5cc(Cl)ccc5o4)CC3C2)c1 (stereo not drawn) [Example 1, (5-(5-chlorobenzo[d]oxazol-2-yl)hexahydropyrrolo[3,4-c]pyrrol-2(1H)-yl)(5-methyl-2-(2H-1,2,3-triazol-2-yl)phenyl)methanone]
IC50 (hERG channel): 3.28 µM
IC50 (humanized OX2 receptor): 308 nM
AUC(0-inf) ([1]; iv, 1 mg/kg): 2710 ng·h/mL
AUC(0-t) ([1]; iv, 1 mg/kg): 2150 ng·h/mL
Cmax ([1]; iv, 1 mg/kg): 821 ng/mL
MRT inf ([1]; iv, 1 mg/kg): 4.97 h
Vd ([1]; iv, 1 mg/kg): 1.83 L/kg
clearance ([1]; iv, 1 mg/kg): 6.14 mL/min/kg
half-life ([1]; iv, 1 mg/kg): 224 min
AUC(0-inf) ([1]; po, 5 mg/kg): 16300 ng·h/mL
AUC(0-t) ([1]; po, 5 mg/kg): 15900 ng·h/mL
Cmax ([1]; po, 5 mg/kg): 1410 ng/mL
F ([1]; po, 5 mg/kg): 147.6%
MRT inf ([1]; po, 5 mg/kg): 6.84 h
half-life ([1]; po, 5 mg/kg): 265 min

— patent US10370380B2, “Octahydropyrrolo[3,4-c]pyrrole derivatives and uses thereof” (Sunshine Lake Pharma Co., Ltd., priority 2015, dated 2019)
